Data as given in ChEMBL document CHEMBL1955753, “SAR-study on a new class of imidazo[1,2-a]pyridine-based inhibitors of 5-lipoxygenase” (Bioorg Med Chem Lett, 2012).

Experiments:
[1] = molecular target: T1, Polyunsaturated fatty acid 5-lipoxygenase (Homo sapiens, UniProt P09917); assay: Inhibition of 5-lipoxygenase in human polymorphonuclear leukocytes assessed as reduction in A23187 and AA-stimulated 5-LO product formation preincubated for 15 mins prior stimulation measured after 10 mins by HPLC analysis; type: cell-based
T1 sequence (P09917 whole entry): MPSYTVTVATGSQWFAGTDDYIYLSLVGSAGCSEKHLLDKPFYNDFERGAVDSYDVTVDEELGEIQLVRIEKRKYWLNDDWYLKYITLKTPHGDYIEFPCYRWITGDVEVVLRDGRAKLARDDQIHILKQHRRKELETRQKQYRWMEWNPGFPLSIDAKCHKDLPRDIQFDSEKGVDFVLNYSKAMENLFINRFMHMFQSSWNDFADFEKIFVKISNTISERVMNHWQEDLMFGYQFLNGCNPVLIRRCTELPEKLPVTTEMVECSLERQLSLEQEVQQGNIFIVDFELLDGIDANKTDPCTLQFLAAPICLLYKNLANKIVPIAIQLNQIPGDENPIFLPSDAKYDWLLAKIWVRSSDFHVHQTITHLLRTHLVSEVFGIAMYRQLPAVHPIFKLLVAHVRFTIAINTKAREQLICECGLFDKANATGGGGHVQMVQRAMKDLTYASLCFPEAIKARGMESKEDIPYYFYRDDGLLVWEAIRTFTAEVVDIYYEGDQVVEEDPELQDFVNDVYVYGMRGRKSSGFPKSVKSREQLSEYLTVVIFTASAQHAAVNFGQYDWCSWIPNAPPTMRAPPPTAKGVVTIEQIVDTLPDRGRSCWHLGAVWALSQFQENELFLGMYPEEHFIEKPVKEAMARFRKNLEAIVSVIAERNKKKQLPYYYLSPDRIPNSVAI

[2] = molecular target: T1, Polyunsaturated fatty acid 5-lipoxygenase; assay: Inhibition of 5-lipoxygenase in S100 cell free fraction of human polymorphonuclear leukocytes assessed as reduction in 5-LO product formation preincubated for 15 mins measured after 10 mins by HPLC analysis; type: cell-based

Row | Compound | IC50 [1] [µM] | IC50 [2] [µM]
1 | Cc1ccc2nc(-c3ccncc3)c(NC3CCCCC3)n2c1 | 7.2 | 7.7
2 | Cc1ccc(-c2nc3cc(C)ccn3c2NC2CCCC2)cc1 | 0.9 | –
3 | Cc1ccc2nc(-c3ccc([N+](=O)[O-])cc3)c(NC3CCCCC3)n2c1 | 1.53 | > 30
4 | Cc1ccc2nc(-c3ccc(N(C)C)cc3)c(NC3CCCCC3)n2c1 | 0.6 | –
5 | CCOc1ccc2[nH]c(=O)c(-c3nc4ccc(C)cn4c3NC3CCCCC3)cc2c1 | 1.8 | 21.6
6 | Clc1ccc2nc(-c3ccc(N4CCOCC4)cc3)n(CC3CCCCC3)c2c1 | 1.2 | 5.8
7 | CN(C)c1ccc(-c2nc3ccc(Cl)cc3n2CC2CCCCC2)cc1 | 0.5 | > 10
